Assay results: US20220041606A1, “POSITIVE ALLOSTERIC MODULATORS OF THE MUSCARINIC ACETYLCHOLINE RECEPTOR M1” (Vanderbilt University, priority 2020, published 2022)

Tests used:
human mAChR M1 [1] = target: T1, human mAChR M1 (Homo sapiens, UniProt P11229); assay: mAChR M1 cell-based functional assay (calcium mobilization), PAM activity: increase in the EC20 acetylcholine response; conditions: CHO-K1 cells expressing hM1; potentiation of EC20 acetylcholine response
T1 construct: host or cells: CHO-K1 cells (ATCC), stably transfected using Lipofectamine2000
T1 sequence (P11229 1-460): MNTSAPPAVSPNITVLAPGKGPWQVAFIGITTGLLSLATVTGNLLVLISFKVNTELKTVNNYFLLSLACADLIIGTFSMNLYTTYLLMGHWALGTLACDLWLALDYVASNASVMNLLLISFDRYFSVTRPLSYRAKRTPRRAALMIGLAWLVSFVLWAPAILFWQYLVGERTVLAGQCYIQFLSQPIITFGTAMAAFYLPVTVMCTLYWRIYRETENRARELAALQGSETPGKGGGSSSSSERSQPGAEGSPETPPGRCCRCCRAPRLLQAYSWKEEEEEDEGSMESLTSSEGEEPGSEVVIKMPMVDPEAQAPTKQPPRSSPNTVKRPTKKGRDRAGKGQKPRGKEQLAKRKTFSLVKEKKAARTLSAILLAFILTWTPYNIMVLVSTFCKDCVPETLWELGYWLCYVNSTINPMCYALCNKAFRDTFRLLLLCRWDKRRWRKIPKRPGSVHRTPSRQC
Description: (§1) Chinese hamster ovary (CHO-K1) cells stably expressing rat (r)M1 were purchased from the American Type Culture Collection and cultured according to their indicated protocol. CHO cells stably expressing human (h)M2, hM3, and hM5 were described previously (Levey, et al., 1991); hM1 and hM4 cDNAs were purchased from Missouri S&T cDNA Resource; rM4 cDNA was provided by T. L. Bonner (National Institutes of Health, Bethesda, MID). rM2 and rM3 were cloned from a rat brain cDNA library and sequence verified. hM1, rM2, rM3, hM4, and rM4 cDNAs were used to stably transfect CHO-K1 cells purchased from the American Type Culture Collection using Lipofectamine2000. To make stable rM2, hM2, rM3, hM4, and rM4 cell lines for use in calcium mobilization assays, these cells also were stably transfected with a chimeric G-protein (Gqi5) (provided by B. R. Conklin, University of California, San Francisco) using Lipofectamine 2000. rM1, hM1, rM3, hM3, rM5, and hM5 cells were grown in Ham's F-12 medium containing 10% heat-inactivated fetal bovine serum (FBS), 20 mM HEPES, and 50 μg/mL G418 sulfate. rM2-Gq15, hM2-Gqi5, and hM4-Gqi5 cells were grown in the same medium also containing 500 μg/mL Hygromycin B. Stable rM4-Gqi5 cells were grown in DMEM containing 10% heat-inactivated FBS, 20 mM HEPES, 400 μg/mL G418 sulfate, and 500 μg/mL Hygromycin B.
(§2) For high throughput measurement of agonist-evoked increases in intracellular calcium, CHO-K1 cells stably expressing muscarinic receptors were plated in growth medium lacking G418 and hygromycin at 15,000 cells/20 μL/well in Greiner 384-well black-walled, tissue culture (TC)-treated, clear-bottom plates (VWR). Cells were incubated overnight at 37° C. and 5% CO2. The next day, cells were washed using an ELX 405 (BioTek) with four washes (80 μL) of assay buffer then aspirated to 20 μL. Next, 20 μL of 16 μM Fluo-4/acetoxymethyl ester (Invitrogen, Carlsbad, Calif.) prepared as a 2.3 mM stock in DMSO and mixed in a 1:1 ratio with 10% (w/v) Pluronic F-127 and diluted in assay buffer was added to the wells and the cell plates were incubated for 50 min at 37° C. and 5% CO2. Dye was removed by washing with the ELX 405 (four 80 μL washes of assay buffer) then aspirated to 20 μL. Compound master plates were formatted in an 11 point CRC format (1:3 dilutions) in 100% DMSO with a starting concentration of 10 mM using the BRAVO liquid handler (Agilent). Test compound CRCs were then transferred to daughter plates (240 nL) using the Echo acoustic plate reformatter (Labcyte, Sunnyvale, Calif.) and then diluted into assay buffer (40 μL) to a 2× stock using a Thermo Fisher Combi (Thermo Fisher Scientific, Waltham, Mass.).
(§3) Calcium flux was measured using the Functional Drug Screening System (FDSS) 6000 (Hamamatsu Corporation, Tokyo, Japan) as an increase in the fluorescent static ratio. Compounds were applied to cells (20 μL, 2×) using the automated system of the FDSS 6000 at 4 s into the 300 s protocol and the data were collected at 1 Hz. At 144 s into the 300s protocol, 10 μL of an EC20 concentration of the muscarinic receptor agonist acetylcholine was added (5×), followed by the addition of 12 μL an EC80 concentration of acetylcholine at the 230 s time point (5×). Agonist activity was analyzed as a concentration-dependent increase in calcium mobilization upon compound addition. Emax values for agonist activity are expressed relative to the maximum for acetylcholine. Positive allosteric modulator activity was analyzed as a concentration-dependent increase in the EC20 acetylcholine response. Antagonist activity was analyzed as a concentration-dependent decrease in the EC80 acetylcholine response. Concentration-response curves were generated using a four-parameter logistical equation in XLfit curve fitting software (IDBS, Bridgewater, N.J.) for Excel (Microsoft, Redmond, Wash.) or Prism (GraphPad Software, Inc., San Diego, Calif.). […]

human mAChR M1 [2] = target: T1, human mAChR M1; assay: mAChR M1 cell-based functional assay (calcium mobilization), agonist activity upon compound addition; conditions: CHO-K1 cells expressing hM1; for EC50: compound alone, before acetylcholine addition; for Emax: relative to the maximum for acetylcholine
Description: as §1, §2, §3

| EC50 (human mAChR M1 [1]) | Emax (human mAChR M1 [1]) | EC50 (human mAChR M1 [2]) | Emax (human mAChR M1 [2]) | Compound |
| --- | --- | --- | --- | --- |
| 4840 nM | 61% | > 10000 nM | < 5% | Cc1cccc(-c2ccc(Cn3cc(C(=O)N[C@H]4CCOC[C@@H]4O)c4ncccc4c3=O)c(F)c2)c1 [Compound A29, 6-((3-fluoro-3′-methyl-[1,1′-biphenyl]-4-yl)methyl)-N-((3R,4S)-3-hydroxytetrahydro-2H-pyran-4-yl)-5-oxo-5,6-dihydro-1,6-naphthyridine-8-carboxamide] |
| 4610 nM | 47% | > 10000 nM | < 5% | Cc1cc(C)cc(-c2ccc(Cn3cc(C(=O)N[C@H]4CCOC[C@@H]4O)c4ncccc4c3=O)c(F)c2)c1 [Compound A30, 6-((3-fluoro-3′,5′-dimethyl-[1,1′-biphenyl]-4-yl)methyl)-N-((3R,4S)-3-hydroxytetrahydro-2H-pyran-4-yl)-5-oxo-5,6-dihydro-1,6-naphthyridine-8-carboxamide] |
| 2600 nM | 70% | > 10000 nM | < 5% | Cc1cccc(-c2cc(F)c(Cn3cc(C(=O)N[C@H]4CCOC[C@@H]4O)c4ncccc4c3=O)c(F)c2)c1 [Compound A31, 6-((3,5-difluoro-3′-methyl-[1,1′-biphenyl]-4-yl)methyl)-N-((3R,4S)-3-hydroxytetrahydro-2H-pyran-4-yl)-5-oxo-5,6-dihydro-1,6-naphthyridine-8-carboxamide] |
| 2240 nM | 70% | > 10000 nM | < 5% | Cc1cc(C)cc(-c2cc(F)c(Cn3cc(C(=O)N[C@H]4CCOC[C@@H]4O)c4ncccc4c3=O)c(F)c2)c1 [Compound A32, 6-((3,5-difluoro-3′,5′-dimethyl-[1,1′-biphenyl]-4-yl)methyl)-N-((3R,4S)-3-hydroxytetrahydro-2H-pyran-4-yl)-5-oxo-5,6-dihydro-1,6-naphthyridine-8-carboxamide] |
| 860 nM | 64% | 3220 nM | 13% | Cc1cncc(-c2cc(F)c(Cn3cc(C(=O)N[C@H]4CCOC[C@@H]4O)c4ncccc4c3=O)c(F)c2)c1 [Compound A33, 6-(2,6-difluoro-4-(5-methylpyridin-3-yl)benzyl)-N-((3R,4S)-3-hydroxytetrahydro-2H-pyran-4-yl)-5-oxo-5,6-dihydro-1,6-naphthyridine-8-carboxamide] |
| 620 nM | 65% | 2880 nM | 12% | Cc1ccc(-c2cc(F)c(Cn3cc(C(=O)N[C@H]4CCOC[C@@H]4O)c4ncccc4c3=O)c(F)c2)cn1 [Compound A34, 6-(2,6-difluoro-4-(6-methylpyridin-3-yl)benzyl)-N-((3R,4S)-3-hydroxytetrahydro-2H-pyran-4-yl)-5-oxo-5,6-dihydro-1,6-naphthyridine-8-carboxamide] |
| 550 nM | 48% | > 10000 nM | < 5% | Cc1ccc(-c2cc(F)c(Cn3cc(C(=O)N[C@H]4CCCC[C@@H]4O)c4ncccc4c3=O)c(F)c2)cn1 [Compound A35, 6-(2,6-difluoro-4-(6-methylpyridin-3-yl)benzyl)-N-((1S,2S)-2-hydroxycyclohexyl)-5-oxo-5,6-dihydro-1,6-naphthyridine-8-carboxamide] |
| 610 nM | 65% | 1770 nM | 13% | Cc1cc(-c2cc(F)c(Cn3cc(C(=O)N[C@H]4CCOC[C@@H]4O)c4ncccc4c3=O)c(F)c2)ccn1 [Compound A36, 6-(2,6-difluoro-4-(2-methylpyridin-4-yl)benzyl)-N-((3R,4S)-3-hydroxytetrahydro-2H-pyran-4-yl)-5-oxo-5,6-dihydro-1,6-naphthyridine-8-carboxamide] |
| 780 nM | 46% | > 10000 nM | < 5% | Cc1cc(-c2cc(F)c(Cn3cc(C(=O)N[C@H]4CCCC[C@@H]4O)c4ncccc4c3=O)c(F)c2)ccn1 [Compound A37, 6-(2,6-difluoro-4-(2-methylpyridin-4-yl)benzyl)-N-((1S,2S)-2-hydroxycyclohexyl)-5-oxo-5,6-dihydro-1,6-naphthyridine-8-carboxamide] |
| 570 nM | 25% | > 10000 nM | < 5% | Cc1cc(-c2cc(F)c(Cn3cc(C(=O)N[C@H]4CCC[C@@H]4O)c4ncccc4c3=O)c(F)c2)ccn1 [Compound A38, 6-(2,6-difluoro-4-(2-methylpyridin-4-yl)benzyl)-N-((1S,2S)-2-hydroxycyclopentyl)-5-oxo-5,6-dihydro-1,6-naphthyridine-8-carboxamide] |
| ≥ 10000 nM | 41% | > 10000 nM | < 5% | COc1cc(-c2cc(F)c(Cn3cc(C(=O)N[C@H]4CCOC[C@@H]4O)c4ncccc4c3=O)c(F)c2)ccc1Cl [Compound A39, 6-((4′-chloro-3,5-difluoro-3′-methoxy-[1,1′-biphenyl]-4-yl)methyl)-N-((3R,4S)-3-hydroxytetrahydro-2H-pyran-4-yl)-5-oxo-5,6-dihydro-1,6-naphthyridine-8-carboxamide] |
| 640 nM | 51% | > 10000 nM | < 5% | Cc1cncc(-c2cc(F)c(Cn3cc(C(=O)N[C@H]4CCCC[C@@H]4O)c4ncccc4c3=O)c(F)c2)c1 [Compound A43, 6-(2,6-difluoro-4-(5-methylpyridin-3-yl)benzyl)-N-((1S,2S)-2-hydroxycyclohexyl)-5-oxo-5,6-dihydro-1,6-naphthyridine-8-carboxamide] |
| ≥ 10000 nM | 26% | > 10000 nM | < 5% | Cc1cncc(-c2cc(F)c(Cn3cc(C(=O)N[C@H]4CCC[C@@H]4O)c4ncccc4c3=O)c(F)c2)c1 [Compound A44, 6-(2,6-difluoro-4-(5-methylpyridin-3-yl)benzyl)-N-((1S,2S)-2-hydroxycyclopentyl)-5-oxo-5,6-dihydro-1,6-naphthyridine-8-carboxamide] |
| 4370 nM | 70% | > 10000 nM | < 5% | Cn1nccc1-c1ccc(Cn2cc(C(=O)N[C@H]3CCOC[C@@H]3O)c3ncccc3c2=O)c(F)c1 [Compound A45, 6-(2-fluoro-4-(1-methyl-1H-pyrazol-5-yl)benzyl)-N-((3R,4S)-3-hydroxytetrahydro-2H-pyran-4-yl)-5-oxo-5,6-dihydro-1,6-naphthyridine-8-carboxamide] |
